Test results from publication PMC8398766, “Do Small Molecules Activate the TrkB Receptor in the Same Manner as BDNF? Limitations of Published TrkB Low Molecular Agonists and Screening for Novel TrkB Orthosteric Agonists” (Pharmaceuticals, 2021).
Like-named read-outs stand apart in the source and are kept apart here.

Key:
in vivo = assay type: in vivo, BALB/c mice
Protocol: The animals were obtained from the Center of Experimental Medicine (University of Bialystok, Bialystok, Poland) and housed under standard laboratory conditions. Mice had unlimited access to water and food. All the procedures were conducted according to the guidelines of the local ethical commission (appl no. 06/2019, perm. no 10/2019). […] Four animals per time point were sacrificed at 10 min, 30 min, 1 h, 2 h, and 4 h after per os administration and 5 min, 10 min, 30 min, 1 h, and 2 h after i.v. administration. The blood (0.5 mL) was collected by heart puncture using probes with anticoagulants (K2EDTA). Plasma samples were obtained by blood centrifugation (15 min, 3000× g at 23 °C). The whole brain was dissected from the skull and washed with cold 0.9% NaCl on ice. The left hemisphere was quickly frozen in liquid nitrogen and stored at −80 °C for further bioanalytical analysis. From the right hemisphere, the hippocampus and frontal cortex were isolated, weighed, and stored at −80 °C after freezing in liquid nitrogen. Isolated structures were homogenized in N-PER cocktail (10 μL for every 1 mg of tissue) using a hand homogenizer, and then processed as described in Section 4.3.3.
For bioanalytical evaluation, brain samples were homogenized in water (3 mL for every 1 g of brain tissue). Plasma and brain samples were then prepared by precipitating proteins and extracting analytes using acetonitrile with the addition of the internal standard: 150 μL of extraction solution was added to 50 μL of biological material, mixed for 1 min and centrifuged (12,900 RPM, 4 min, 4 °C), and the supernatant was collected for analysis. Standard solutions including calibration standards and quality control samples were prepared by spiking 45 μL of biological material with 5 μL of standard working solution, adding 150 μL of extraction solution, and then mixing, centrifuging, and collecting the supernatant for analysis. The concentrations of analytes in the plasma and brain samples were determined using a UPLC-MS/MS instrument (Agilent Technologies) and chromatographic columns (Agilent Zorbax Eclipse 50 × 2.1 mm; 1.7 μm).

Abl kinase = biological target: T1, Abl kinase (Homo sapiens, UniProt P00519); assay: BioPrint Profile Panel; assay type: biochemical; conditions: read-out: % of specific inhibition
T1 construct: purchased Eurofins Discovery (Cerep) BioPrint Profile Panel
T1 sequence (P00519 whole entry): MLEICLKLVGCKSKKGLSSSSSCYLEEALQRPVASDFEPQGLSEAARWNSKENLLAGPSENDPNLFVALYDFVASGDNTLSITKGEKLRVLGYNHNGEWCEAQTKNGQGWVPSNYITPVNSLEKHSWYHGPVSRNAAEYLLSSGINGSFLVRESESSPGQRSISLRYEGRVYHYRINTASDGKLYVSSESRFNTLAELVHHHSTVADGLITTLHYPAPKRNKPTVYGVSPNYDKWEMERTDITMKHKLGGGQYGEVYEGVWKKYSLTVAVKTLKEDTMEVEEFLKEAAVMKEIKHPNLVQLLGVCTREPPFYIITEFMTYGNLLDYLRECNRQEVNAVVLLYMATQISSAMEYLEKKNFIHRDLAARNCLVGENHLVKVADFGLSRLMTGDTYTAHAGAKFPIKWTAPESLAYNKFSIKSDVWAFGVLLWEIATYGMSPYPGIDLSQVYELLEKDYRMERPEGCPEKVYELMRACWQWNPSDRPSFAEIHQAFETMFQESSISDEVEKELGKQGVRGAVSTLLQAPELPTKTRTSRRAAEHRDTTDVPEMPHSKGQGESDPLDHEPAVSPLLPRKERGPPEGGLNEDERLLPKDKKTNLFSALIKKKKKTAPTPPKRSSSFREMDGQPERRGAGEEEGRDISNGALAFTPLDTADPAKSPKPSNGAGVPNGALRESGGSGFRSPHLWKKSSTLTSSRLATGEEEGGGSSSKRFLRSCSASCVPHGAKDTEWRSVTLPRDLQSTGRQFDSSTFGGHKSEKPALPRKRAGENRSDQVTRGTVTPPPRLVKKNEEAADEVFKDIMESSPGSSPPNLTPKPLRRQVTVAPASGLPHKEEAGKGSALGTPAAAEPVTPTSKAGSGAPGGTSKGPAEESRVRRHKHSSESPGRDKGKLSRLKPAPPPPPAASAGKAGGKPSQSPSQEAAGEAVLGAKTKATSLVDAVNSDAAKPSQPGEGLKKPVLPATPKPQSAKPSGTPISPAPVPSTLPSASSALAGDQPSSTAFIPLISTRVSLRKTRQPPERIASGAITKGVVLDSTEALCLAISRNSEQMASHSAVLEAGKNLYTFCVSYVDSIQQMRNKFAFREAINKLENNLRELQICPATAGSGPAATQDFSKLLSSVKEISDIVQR
From the text: (§1) The BioPrint® Profile Panel service offered by Eurofins Discovery (Poitiers, France) was chosen to perform selectivity analysis.

BACE-1 = biological target: T2, BACE-1 (Homo sapiens, UniProt P56817); assay: BioPrint Profile Panel; assay type: biochemical; conditions: Non-Kinase Enzyme, read-out: % of specific inhibition
T2 construct: purchased Eurofins Discovery (Cerep) BioPrint Profile Panel
From the text: as §1

CDK2 = biological target: T3, CDK2 (Homo sapiens, UniProt P24941); assay: BioPrint Profile Panel; assay type: biochemical; conditions: Kinase, read-out: % of specific inhibition
T3 construct: purchased Eurofins Discovery (Cerep) BioPrint Profile Panel
From the text: as §1

COX1 = biological target: T4, COX1 (Homo sapiens, UniProt P23219); assay: BioPrint Profile Panel; assay type: biochemical; conditions: Non-Kinase Enzyme, read-out: % of specific inhibition
T4 construct: purchased Eurofins Discovery (Cerep) BioPrint Profile Panel
From the text: as §1

CaMK2α = biological target: T5, CaMK2α (Homo sapiens, UniProt Q9UQM7); assay: BioPrint Profile Panel; assay type: biochemical; conditions: Kinase, read-out: % of specific inhibition
T5 construct: purchased Eurofins Discovery (Cerep) BioPrint Profile Panel
T5 sequence (Q9UQM7 whole entry): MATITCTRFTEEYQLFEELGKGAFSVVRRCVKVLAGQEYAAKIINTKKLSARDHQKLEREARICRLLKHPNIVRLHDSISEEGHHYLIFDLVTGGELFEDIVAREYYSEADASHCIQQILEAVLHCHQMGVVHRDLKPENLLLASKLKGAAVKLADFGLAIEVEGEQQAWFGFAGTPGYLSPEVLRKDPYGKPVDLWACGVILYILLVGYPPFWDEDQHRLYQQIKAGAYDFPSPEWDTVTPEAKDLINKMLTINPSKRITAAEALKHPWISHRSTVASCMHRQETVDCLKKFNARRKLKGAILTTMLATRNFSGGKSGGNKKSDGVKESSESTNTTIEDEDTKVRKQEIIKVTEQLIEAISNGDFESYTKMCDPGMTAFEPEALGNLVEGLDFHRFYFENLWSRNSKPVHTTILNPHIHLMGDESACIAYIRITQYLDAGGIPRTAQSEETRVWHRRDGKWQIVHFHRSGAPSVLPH
From the text: as §1

MMP-1 = biological target: T6, MMP-1 (Homo sapiens, UniProt P03956); assay: BioPrint Profile Panel; assay type: biochemical; conditions: Non-Kinase Enzyme, read-out: % of specific inhibition
T6 construct: purchased Eurofins Discovery (Cerep) BioPrint Profile Panel
T6 sequence (P03956 100-469): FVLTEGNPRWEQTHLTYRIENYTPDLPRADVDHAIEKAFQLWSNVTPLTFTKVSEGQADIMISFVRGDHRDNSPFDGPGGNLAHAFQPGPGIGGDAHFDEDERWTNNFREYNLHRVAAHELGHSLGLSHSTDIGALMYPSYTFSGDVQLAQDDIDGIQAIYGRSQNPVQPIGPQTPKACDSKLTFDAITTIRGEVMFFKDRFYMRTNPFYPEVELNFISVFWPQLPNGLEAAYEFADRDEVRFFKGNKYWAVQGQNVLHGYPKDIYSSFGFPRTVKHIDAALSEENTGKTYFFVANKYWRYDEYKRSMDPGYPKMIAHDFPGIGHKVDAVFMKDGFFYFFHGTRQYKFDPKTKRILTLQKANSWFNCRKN
From the text: as §1

MMP-2 = biological target: T7, MMP-2 (Homo sapiens, UniProt P08253); assay: BioPrint Profile Panel; assay type: biochemical; conditions: Non-Kinase Enzyme
T7 construct: purchased Eurofins Discovery (Cerep) BioPrint Profile Panel
T7 sequence (P08253 110-660): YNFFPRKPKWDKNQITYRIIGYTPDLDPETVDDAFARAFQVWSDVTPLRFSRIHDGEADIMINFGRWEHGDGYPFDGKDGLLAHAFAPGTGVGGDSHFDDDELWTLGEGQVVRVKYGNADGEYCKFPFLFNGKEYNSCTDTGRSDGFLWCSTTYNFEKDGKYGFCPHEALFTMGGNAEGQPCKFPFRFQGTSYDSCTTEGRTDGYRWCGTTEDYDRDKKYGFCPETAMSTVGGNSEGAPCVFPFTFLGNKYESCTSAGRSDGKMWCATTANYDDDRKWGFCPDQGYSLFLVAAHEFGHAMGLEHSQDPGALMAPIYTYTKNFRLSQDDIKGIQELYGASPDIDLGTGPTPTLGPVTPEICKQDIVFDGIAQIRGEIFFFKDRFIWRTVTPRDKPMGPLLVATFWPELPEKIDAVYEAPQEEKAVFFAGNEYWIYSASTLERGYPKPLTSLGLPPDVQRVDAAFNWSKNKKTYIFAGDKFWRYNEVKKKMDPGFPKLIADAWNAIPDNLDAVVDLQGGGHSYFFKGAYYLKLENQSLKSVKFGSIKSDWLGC
From the text: as §1

PDE2A1 = PDE2A1 (Homo sapiens, UniProt O00408); assay: BioPrint Profile Panel; assay type: biochemical; conditions: Non-Kinase Enzyme, read-out: % of specific inhibition
From the text: as §1

PDE4D2 = biological target: T8, PDE4D2 (Homo sapiens, UniProt Q08499); assay: BioPrint Profile Panel; assay type: biochemical; conditions: Non-Kinase Enzyme, read-out: % of specific inhibition
T8 construct: purchased Eurofins Discovery (Cerep) BioPrint Profile Panel
T8 sequence (Q08499 303-809): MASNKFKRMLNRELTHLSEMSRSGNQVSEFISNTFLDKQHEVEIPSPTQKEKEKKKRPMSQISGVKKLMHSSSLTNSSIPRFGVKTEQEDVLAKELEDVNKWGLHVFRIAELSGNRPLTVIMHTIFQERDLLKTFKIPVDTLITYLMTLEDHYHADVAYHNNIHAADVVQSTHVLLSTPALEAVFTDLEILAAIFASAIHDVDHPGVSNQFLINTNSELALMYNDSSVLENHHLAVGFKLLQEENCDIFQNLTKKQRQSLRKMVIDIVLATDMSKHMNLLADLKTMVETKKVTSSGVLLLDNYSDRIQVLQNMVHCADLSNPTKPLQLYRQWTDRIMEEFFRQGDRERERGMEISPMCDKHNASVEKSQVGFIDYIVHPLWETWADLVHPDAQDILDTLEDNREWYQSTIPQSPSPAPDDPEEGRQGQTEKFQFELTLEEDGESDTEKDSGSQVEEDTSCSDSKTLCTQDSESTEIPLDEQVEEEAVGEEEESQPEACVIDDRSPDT
From the text: as §1

PDE5 = biological target: T9, PDE5 (Homo sapiens, UniProt O76074); assay: BioPrint Profile Panel; assay type: biochemical; conditions: Non-Kinase Enzyme, read-out: % of specific inhibition
T9 construct: purchased Eurofins Discovery (Cerep) BioPrint Profile Panel
From the text: as §1

[1] = biological target: T10, Xanthine oxidase/ superoxide O2-scavenging (Bos taurus, UniProt P80457); assay: BioPrint Profile Panel; assay type: biochemical; conditions: Non-Kinase Enzyme
T10 construct: purchased Eurofins Discovery (Cerep) BioPrint Profile Panel
T10 sequence (P80457 whole entry): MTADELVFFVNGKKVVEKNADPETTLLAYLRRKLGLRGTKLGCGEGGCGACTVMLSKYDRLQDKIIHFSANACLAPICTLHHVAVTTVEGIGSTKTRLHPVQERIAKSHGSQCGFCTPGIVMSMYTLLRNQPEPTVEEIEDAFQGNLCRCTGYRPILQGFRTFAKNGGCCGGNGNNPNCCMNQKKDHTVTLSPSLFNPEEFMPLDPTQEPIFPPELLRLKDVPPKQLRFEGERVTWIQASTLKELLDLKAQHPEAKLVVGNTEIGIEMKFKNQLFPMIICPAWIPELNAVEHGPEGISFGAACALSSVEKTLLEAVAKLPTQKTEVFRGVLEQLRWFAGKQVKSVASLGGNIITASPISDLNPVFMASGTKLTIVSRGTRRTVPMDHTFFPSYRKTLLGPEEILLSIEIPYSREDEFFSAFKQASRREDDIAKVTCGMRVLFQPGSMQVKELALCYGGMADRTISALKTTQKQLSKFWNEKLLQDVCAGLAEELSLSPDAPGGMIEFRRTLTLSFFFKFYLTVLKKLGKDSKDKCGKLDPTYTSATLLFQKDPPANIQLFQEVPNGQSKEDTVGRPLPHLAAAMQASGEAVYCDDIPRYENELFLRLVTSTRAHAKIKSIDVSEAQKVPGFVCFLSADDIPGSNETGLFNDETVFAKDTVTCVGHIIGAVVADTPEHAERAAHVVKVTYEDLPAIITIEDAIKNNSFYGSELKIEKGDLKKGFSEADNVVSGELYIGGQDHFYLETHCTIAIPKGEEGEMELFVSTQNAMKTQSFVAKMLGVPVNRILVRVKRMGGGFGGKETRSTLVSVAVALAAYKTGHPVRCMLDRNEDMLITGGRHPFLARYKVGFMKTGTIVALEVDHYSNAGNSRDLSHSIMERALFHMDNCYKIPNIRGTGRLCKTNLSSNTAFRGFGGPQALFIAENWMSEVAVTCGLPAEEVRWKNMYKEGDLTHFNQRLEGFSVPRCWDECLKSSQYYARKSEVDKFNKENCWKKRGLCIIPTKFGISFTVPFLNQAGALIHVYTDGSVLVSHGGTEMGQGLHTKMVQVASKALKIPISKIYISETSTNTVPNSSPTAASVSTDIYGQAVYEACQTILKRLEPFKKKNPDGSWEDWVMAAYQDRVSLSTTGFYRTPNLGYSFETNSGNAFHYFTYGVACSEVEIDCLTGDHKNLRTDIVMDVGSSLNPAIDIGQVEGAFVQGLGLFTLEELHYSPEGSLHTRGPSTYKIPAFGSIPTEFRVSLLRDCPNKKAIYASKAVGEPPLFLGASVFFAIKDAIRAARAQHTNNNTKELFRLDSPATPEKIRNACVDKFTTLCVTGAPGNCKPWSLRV
From the text: as §1

caspase-3 = biological target: T11, caspase-3 (Homo sapiens, UniProt P42574); assay: BioPrint Profile Panel; assay type: biochemical; conditions: Non-Kinase Enzyme, read-out: % of specific inhibition
T11 construct: purchased Eurofins Discovery (Cerep) BioPrint Profile Panel
T11 sequence (P42574 29-175 limits assumed): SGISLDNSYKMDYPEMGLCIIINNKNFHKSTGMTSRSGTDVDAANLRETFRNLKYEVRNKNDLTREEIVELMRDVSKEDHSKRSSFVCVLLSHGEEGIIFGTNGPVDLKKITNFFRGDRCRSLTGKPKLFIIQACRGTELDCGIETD
T11 sequence (P42574 176-277 limits assumed): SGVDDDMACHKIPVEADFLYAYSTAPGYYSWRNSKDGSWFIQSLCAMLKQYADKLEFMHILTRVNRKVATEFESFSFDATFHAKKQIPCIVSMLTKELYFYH
From the text: as §1

inducible NOS = assay: BioPrint Profile Panel; assay type: biochemical; conditions: 10 μM; Non-Kinase Enzyme
From the text: as §1

p38α kinase = biological target: T12, p38α kinase (Homo sapiens, UniProt Q16539); assay: BioPrint Profile Panel; assay type: biochemical; conditions: read-out: % of specific inhibition
T12 construct: purchased Eurofins Discovery (Cerep) BioPrint Profile Panel
T12 sequence (Q16539 whole entry): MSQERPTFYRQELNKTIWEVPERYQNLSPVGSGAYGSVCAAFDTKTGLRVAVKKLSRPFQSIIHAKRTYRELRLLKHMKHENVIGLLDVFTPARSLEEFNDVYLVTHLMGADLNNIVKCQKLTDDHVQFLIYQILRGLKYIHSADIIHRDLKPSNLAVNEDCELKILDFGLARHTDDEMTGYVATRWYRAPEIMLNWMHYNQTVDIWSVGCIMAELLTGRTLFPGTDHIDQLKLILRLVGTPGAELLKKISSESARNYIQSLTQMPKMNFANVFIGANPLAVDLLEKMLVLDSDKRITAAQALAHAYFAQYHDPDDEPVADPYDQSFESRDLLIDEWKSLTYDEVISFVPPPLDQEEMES
From the text: as §1

in vitro [2] = conditions: human, Caco-2
in vitro [3] = conditions: human, microsomes
in vitro [4] = conditions: mouse, microsomes
PAMPA = conditions: 10 μM, 4 h
exTrkB = biological target: T13, exTrkB (Homo sapiens, UniProt Q16620); assay: Ligand-induced exTrkB dimerization assay (native electrophoresis); assay type: biochemical; conditions: exTrkB:ligand 1:1, non-reducing conditions
T13 construct: human TrkB receptor (exTrkB), residues 1−430, was cloned into the pCMV2 expression vector; made in house; host or cells: ExpiCHO-S cells
Protocol: The native exTrkB, BDNF, and tested compounds were separately diluted with PBS (pH 7.4) to a final concentration of 2.5 μM. Then, exTrkB, BDNF, or the tested compound were mixed (1:1 v/v) and incubated at 25 °C for 10 min, and 2X Sample Buffer (0.6 M Tris, 20% glycerol, 0.02% Bromophenol Blue, pH 6.8) was added to the samples. Afterwards, the samples were loaded into Stain-Free gels (10% Mini-PROTEAN® TGX Stain-Free™ Protein Gels; Bio-Rad, Hercules, CA, USA) and separated in non-reducing conditions using SDS-free electrophoresis buffer (192 mM glycine, 25 mM Tris; pH 8.3). Visualization of the protein bands was performed using a ChemiDoc MP Imaging System (Bio-Rad).

[5] = male, BALB/c, mouse, in vivo, po, 50 mg/kg
[6] = read-out: % Inhibition of Control Specific Binding

Molecule: O=c1cc(-c2ccccc2)oc2c(O)c(O)ccc12 [7,8-DHF, 7,8-dihydroxyflavone]
- Detection in plasma or brain samples (in vivo; 7,8-DHF i.v. 1 mg/kg): not detectable
- C brain, individual mice (in vivo; 7,8-DHF i.v. 1mg/kg, 5min): < LLQ
- C plasma, individual mice (in vivo; 7,8-DHF i.v. 1mg/kg, 5min): < LLQ
- C brain, individual mice (in vivo; 7,8-DHF i.v. 1mg/kg, 10 min): < LLQ
- C plasma, individual mice (in vivo; 7,8-DHF i.v. 1mg/kg, 10 min): < LLQ
- C brain, individual mice (in vivo; 7,8-DHF i.v. 1mg/kg, 30 min): < LLQ
- C plasma, individual mice (in vivo; 7,8-DHF i.v. 1mg/kg, 30 min): < LLQ
- C brain, individual mice (in vivo; 7,8-DHF i.v. 1mg/kg, 1h): < LLQ
- C plasma, individual mice (in vivo; 7,8-DHF i.v. 1mg/kg, 1h): < LLQ
- C brain, individual mice (in vivo; 7,8-DHF i.v. 1mg/kg, 2h): < LLQ
- C plasma, individual mice (in vivo; 7,8-DHF i.v. 1mg/kg, 2h): < LLQ
- C plasma, individual mice (in vivo; 7,8-DHF p.o 50mg/kg, 1h): < LLQ
- C brain, individual mice (in vivo; 7,8-DHF p.o 50mg/kg, 4h): < LLQ
- C plasma, individual mice (in vivo; 7,8-DHF p.o 50mg/kg, 4h): < LLQ
- Brain concentration relative to plasma (in vivo; 7,8-DHF p.o. 50 mg/kg): 10 fold lower
- Time at which plasma concentration fell under the detection limit (in vivo; 7,8-DHF p.o. 50 mg/kg): 1 h
- AUC (in vivo; [5]): 20.9 ng·h/mL
- Time of maximal plasma concentration (in vivo; [5]): 10 min
- Tmax (in vivo; [5]): 9.6 min
- Cmax (in vivo; male, BALB/c, mouse, in vivo, po, 50 mg/kg, brain, 7,8-DHF p.o. 50 mg/kg, read-out: Cmax): 6.35 ng/g
- Cmax (in vivo; male, BALB/c, mouse, in vivo, po, 50 mg/kg, plasma, 7,8-DHF p.o. 50 mg/kg, read-out: Cmax): 77.4 ng/mL
- Cmax (in vivo; plasma, 7,8-DHF p.o. 50 mg/kg, 50 mg/kg): 72.42 ng/mL
- inhibition at 10 µM (Abl kinase): 25%
- inhibition at 10 µM (BACE-1): 15%
- inhibition at 10 µM (CDK2): 0%
- inhibition at 10 µM (COX1): 49%
- inhibition at 10 µM (CaMK2α): -20%
- inhibition at 10 µM (MMP-1): 10%
- % Inhibition of Control Specific Binding (MMP-2; 10 μM): 56.5%
- inhibition at 10 µM (MMP-2; [6]): 56%
- inhibition at 10 µM (PDE2A1): 5%
- inhibition at 10 µM (PDE4D2): 38%
- inhibition at 10 µM (PDE5): 48%
- % Inhibition of Control Specific Binding ([1]; 10 μM): 91.5%
- inhibition at 10 µM [1, 6]: 92%
- inhibition at 10 µM (caspase-3): 1%
- % of specific inhibition (inducible NOS): 3%
- inhibition at 10 µM (p38α kinase): -50%
- Papp A→B at 2 h (in vitro [2]): 22.8 ×10⁻⁶ cm/s
- Papp B→A at 2 h (in vitro [2]): 12.4 ×10⁻⁶ cm/s
- microsomal CLint at 1 μM (in vitro [3]): 52.2 µL/min/mg
- microsomal CLint at 1 μM (in vitro [4]): 21.3 µL/min/mg

Molecule: C=CC(C)(C)c1[nH]c2ccccc2c1C1=C(O)C(=O)C(c2c[nH]c3c(CC=C(C)C)cccc23)=C(O)C1=O [DMAQ-B1]
- PAMPA (PAMPA): 6.93 10^−6·cm/s

B1: BDNF: Brain-derived neurotrophic factor, endogenous TrkB receptor agonist (protein, UniProt P23560 19-247, looked up)
Neurotrophic factor BDNF …: APMKEANIRGQGGLAYPGVRTHGTLESVNGPKAGSRGLTSLADTFEHVIEELLDEDQKVRPNEENNKDADLYTSRVMLSSQVPLEPPLLFLLEEYKNYLDAANMSMRVRRHSDPARRGELSVCDSISEWVTAADKKTAVDMSGGTVTVLEKVPVSKGQLKQYFYETKCNPMGYTKEGCRGIDKRHWNSQCRTTQSYVRALTMDSKKRIGWRFIRIDTSCVCTLTIKRGR
- TrkB Dimerization (exTrkB): YES
